The text below walks through data of patent US20120165332A1, “SULFONAMIDES AND SULFAMIDES AS ZAP-70 INHIBITORS” (Cellzome Limited, priority 2009, published 2012).

pIC50: −log10 of the molar value.

In the assay the target is T1, ZAP-70 (Homo sapiens, UniProt P43403).
T1 construct: endogenous in cells; host or cells: cell lysate
T1 sequence (P43403 1-619): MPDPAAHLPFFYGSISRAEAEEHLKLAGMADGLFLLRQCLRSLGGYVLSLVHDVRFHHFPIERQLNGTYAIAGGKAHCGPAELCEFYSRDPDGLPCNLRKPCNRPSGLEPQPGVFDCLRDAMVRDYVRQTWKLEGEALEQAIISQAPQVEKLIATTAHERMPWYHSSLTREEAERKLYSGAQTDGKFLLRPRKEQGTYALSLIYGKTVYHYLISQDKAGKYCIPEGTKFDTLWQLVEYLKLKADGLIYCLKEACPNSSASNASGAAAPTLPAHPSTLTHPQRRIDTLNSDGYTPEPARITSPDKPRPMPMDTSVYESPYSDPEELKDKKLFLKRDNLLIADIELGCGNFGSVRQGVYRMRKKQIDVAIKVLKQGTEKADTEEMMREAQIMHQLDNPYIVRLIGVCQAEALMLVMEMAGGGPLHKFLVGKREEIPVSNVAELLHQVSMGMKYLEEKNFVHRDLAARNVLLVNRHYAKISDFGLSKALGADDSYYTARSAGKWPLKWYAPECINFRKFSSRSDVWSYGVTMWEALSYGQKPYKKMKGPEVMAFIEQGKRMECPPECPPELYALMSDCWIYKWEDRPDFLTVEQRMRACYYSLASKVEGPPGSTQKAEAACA
As to the kind of experiment: ZAP-70 kinobeads assay. It counts as binding. The note with it: cell lysate, affinity matrix with immobilized aminopyrido-pyrimidine ligand 24, dot blot detection. The procedure:
The compounds of the present invention as described in the previous examples can be tested in the ZAP-70 kinobeads assay as described (EP-A 1862802 and WO-A 2007/137867). Briefly, test compounds (at various concentrations) and the affinity matrix with the immobilized aminopyrido-pyrimidine ligand 24 are added to cell lysate aliquots and allowed to bind to the proteins in the lysate sample. After the incubation time the beads with captured proteins are separated from the lysate. Bound proteins are then eluted and the presence ZAP-70 is detected and quantified using a specific antibody in a dot blot procedure and the Odyssey infrared detection system.
The compound `COc1ccc(Nc2nc(Nc3cc(OC)c(OC)c(OC)c3)ncc2Cl)c(N(Cc2cnc[nH]2)S(C)(=O)=O)c1` [Example 1, N-((1H-imidazol-5-yl)methyl)-N-(2-(5-chloro-2-(3,4,5-trimethoxyphenylamino)pyrimidin-4-ylamino)-5-methoxyphenyl)methanesulfonamide] gave a pIC50 of 6.00 to 7.00. The value for `COc1cc(Nc2ncc(Cl)c(Nc3ccccc3N(CCNC=O)S(C)(=O)=O)n2)cc(OC)c1OC` [Example 2, N-(2-(N-(2-(5-chloro-2-(3,4,5-trimethoxyphenylamino)pyrimidin-4-ylamino)phenyl)methylsulfonamido)ethyl)formamide] was no less than 7.00. The value for `COc1ccc(Nc2nc(Nc3cc(OC)c(OC)c(OC)c3)ncc2Cl)c(N(CN2CCCC2=O)S(C)(=O)=O)c1` [Example 3, N-(2-(5-chloro-2-(3,4,5-trimethoxyphenylamino)pyrimidin-4-ylamino)-5-methoxyphenyl)-N-((2-oxopyrrolidin-1-yl)methyl)methanesulfonamide] was 5.00 to 6.00; that for `COc1ccc(Nc2nc(Nc3cc(OC)c(OC)c(OC)c3)ncc2Cl)c(N(C[C@@H]2CCC(=O)N2)S(C)(=O)=O)c1` [Example 4, (S)—N-(2-(5-chloro-2-(3,4,5-trimethoxyphenylamino)pyrimidin-4-ylamino)-5-methoxyphenyl)-N-((5-oxopyrrolidin-2-yl)methyl)methanesulfonamide] was no less than 7.00. The value for `COc1ccc(Nc2nc(Nc3cc(OC)c(OC)c(OC)c3)ncc2Cl)c(N(C[C@H]2CCC(=O)N2)S(C)(=O)=O)c1` [Example 5, (R)—N-(2-(5-chloro-2-(3,4,5-trimethoxyphenylamino)pyrimidin-4-ylamino)-5-methoxyphenyl)-N-((5-oxopyrrolidin-2-yl)methyl)methanesulfonamide] was 5.00 to 6.00; that for `COc1ccc(Nc2nc(Nc3cc(OC)c(OC)c(OC)c3)ncc2Cl)c(N(CC#N)S(C)(=O)=O)c1` [Example 6, N-(2-(5-chloro-2-(3,4,5-trimethoxyphenylamino)pyrimidin-4-ylamino)-5-methoxyphenyl)-N-(cyanomethyl)methanesulfonamide] was no less than 7.00. `COc1ccc(Nc2nc(Nc3cc(OC)c(OC)c(OC)c3)ncc2Cl)c(N(CCN)S(C)(=O)=O)c1` [Example 7, N-(2-aminoethyl)-N-(2-(5-chloro-2-(3,4,5-trimethoxyphenylamino)pyrimidin-4-ylamino)-5-methoxyphenyl)methanesulfonamide] gave a pIC50 of no less than 7.00. `COc1ccc(Nc2nc(Nc3cc(OC)c(OC)c(OC)c3)ncc2Cl)c(N(CCNC=O)S(C)(=O)=O)c1` [Example 8] had a pIC50 of no less than 7.00. In the case of `COc1ccc(Nc2nc(Nc3cc(OC)c(OC)cc3C)ncc2Cl)c(N(CCN)S(C)(=O)=O)c1` [Example 9, N-(2-aminoethyl)-N-(2-(5-chloro-2-(4,5-dimethoxy-2-methylphenylamino)pyrimidin-4-ylamino)-5-methoxyphenyl)methanesulfonamide], the pIC50 was no less than 7.00.

As for `COc1ccc(Nc2nc(Nc3cc(F)c(OC)cc3OC)ncc2Cl)c(N(CCN)S(C)(=O)=O)c1` [Example 10, N-(2-aminoethyl)-N-(2-(5-chloro-2-(5-fluoro-2,4-dimethoxyphenylamino)pyrimidin-4-ylamino)-5-methoxyphenyl)methanesulfonamide], the pIC50 is 6.00 to 7.00. Compound `COc1ccc(Nc2ncc(Cl)c(Nc3ccc(OC)cc3N(CCNC=O)S(C)(=O)=O)n2)c(OC)c1` [Example 11] gave a pIC50 of 6.00 to 7.00. The value for `COc1ccc(Nc2nc(Nc3cc(OC)c(OC)c(OC)c3)ncc2Cl)c(N(CCCNC=O)S(C)(=O)=O)c1` [Example 12, N-(3-(N-(2-(5-chloro-2-(3,4,5-trimethoxyphenylamino)pyrimidin-4-ylamino)-5-methoxyphenyl)methylsulfonamido)propyl)formamide] was no less than 7.00; that for `COCCN(c1c(C)cccc1Nc1nc(Nc2cc(OC)c(OC)c(OC)c2)ncc1F)S(C)(=O)=O` [Example 13] was 5.00 to 6.00.

Compound `COc1cc(Nc2ncc(F)c(Nc3cccc(C)c3N(CC(N)=O)S(C)(=O)=O)n2)cc(OC)c1OC` [Example 14, 2-(N-(2-(5-fluoro-2-(3,4,5-trimethoxyphenylamino)pyrimidin-4-ylamino)-6-methylphenyl)methylsulfonamido) acetamide] gave a pIC50 of 5.00 to 6.00. The value for `COc1cc(Nc2ncc(F)c(Nc3cccc(C)c3N(CCO)S(C)(=O)=O)n2)cc(OC)c1OC` [Example 15, N-(2-(5-fluoro-2-(3,4,5-trimethoxyphenylamino)pyrimidin-4-ylamino)-6-methylphenyl)-N-(2-hydroxyethyl)methanesulfonamide] was 5.00 to 6.00; that for `COc1cc(Nc2ncc(F)c(Nc3cccc(C)c3N(CCC#N)S(C)(=O)=O)n2)cc(OC)c1OC` [Example 16, N-(2-cyanoethyl)-N-(2-(5-fluoro-2-(3,4,5-trimethoxyphenylamino)pyrimidin-4-ylamino)-6-methylphenyl)methanesulfonamide] was 6.00 to 7.00.

Consider `COc1cc(Nc2ncc(F)c(Nc3cccc(C)c3N(CC#N)S(C)(=O)=O)n2)cc(OC)c1OC` [Example 17, N-(cyanomethyl)-N-(2-(5-fluoro-2-(3,4,5-trimethoxyphenylamino)pyrimidin-4-ylamino)-6-methylphenyl)methanesulfonamide], for which the pIC50 was 5.00 to 6.00. The value for `COC(=O)CN(c1c(C)cccc1Nc1nc(Nc2cc(OC)c(OC)c(OC)c2)ncc1F)S(C)(=O)=O` [Example 18, Methyl 2-(N-(2-(5-fluoro-2-(3,4,5-trimethoxyphenylamino)pyrimidin-4-ylamino)-6-methylphenyl)methylsulfonamido)acetate] was 5.00 to 6.00. The value for `COc1cc(Nc2ncc(F)c(Nc3cccc(C)c3N(CCN)S(C)(=O)=O)n2)cc(OC)c1OC` [Example 19, N-(2-aminoethyl)-N-(2-(5-fluoro-2-(3,4,5-trimethoxyphenylamino)pyrimidin-4-ylamino)-6-methylphenyl)methanesulfonamide] was 6.00 to 7.00; that for `COc1cc(Nc2ncc(F)c(Nc3cccc(C)c3N(CCNC=O)S(C)(=O)=O)n2)cc(OC)c1OC` [Example 20, N-(2-(N-(2-(5-fluoro-2-(3,4,5-trimethoxyphenylamino)pyrimidin-4-ylamino)-6-methylphenyl)methylsulfonamido)ethyl)formamide] was 6.00 to 7.00. In turn, `COc1cc(Nc2ncc(F)c(Nc3cccc(C)c3N(CCCN)S(C)(=O)=O)n2)cc(OC)c1OC` [Example 21, N-(3-aminopropyl)-N-(2-(5-fluoro-2-(3,4,5-trimethoxyphenylamino)pyrimidin-4-ylamino)-6-methylphenyl)methanesulfonamide] showed a pIC50 of 6.00 to 7.00.

`COC(=O)CCN(c1c(C)cccc1Nc1nc(Nc2cc(OC)c(OC)c(OC)c2)ncc1F)S(C)(=O)=O` [Example 22, Methyl 3-(N-(2-(5-fluoro-2-(3,4,5-trimethoxyphenylamino)pyrimidin-4-ylamino)-6-methylphenyl)methylsulfonamido)propanoate] had a pIC50 of 5.00 to 6.00. The value for `COc1cc(Nc2ncc(F)c(Nc3cccc(C)c3N(CCC(N)=O)S(C)(=O)=O)n2)cc(OC)c1OC` [Example 23, 3-(N-(2-(5-fluoro-2-(3,4,5-trimethoxyphenylamino)pyrimidin-4-ylamino)-6-methylphenyl)methylsulfonamido)propanamide] was 5.00 to 6.00. In turn, `COc1cc(Nc2ncc(F)c(Nc3cccc(C)c3N(CCCC#N)S(C)(=O)=O)n2)cc(OC)c1OC` [Example 24, N-(3-cyanopropyl)-N-(2-(5-fluoro-2-(3,4,5-trimethoxyphenylamino)pyrimidin-4-ylamino)-6-methylphenyl)methanesulfonamide] gave a pIC50 of 5.00 to 6.00.

Regarding `COc1cc(Nc2ncc(F)c(Nc3cccc(C)c3N(CCCC(N)=O)S(C)(=O)=O)n2)cc(OC)c1OC` [Example 25, 4-(N-(2-(5-fluoro-2-(3,4,5-trimethoxyphenylamino)pyrimidin-4-ylamino)-6-methylphenyl)methylsulfonamido)butanamide], the pIC50 was 5.00 to 6.00.

Take `COc1cc(Nc2ncc(F)c(Nc3cccc(C)c3N(CCNC(C)=O)S(C)(=O)=O)n2)cc(OC)c1OC` [Example 26, N-(2-(N-(2-(5-fluoro-2-(3,4,5-trimethoxyphenylamino)pyrimidin-4-ylamino)-6-methylphenyl)methylsulfonamido)ethyl)acetamide]: the pIC50 is 6.00 to 7.00. The value for `COc1cc(Nc2ncc(F)c(Nc3cccc(C)c3N(CCCNC(C)=O)S(C)(=O)=O)n2)cc(OC)c1OC` [Example 27, N-(3-(N-(2-(5-fluoro-2-(3,4,5-trimethoxyphenylamino)pyrimidin-4-ylamino)-6-methylphenyl)methylsulfonamido)propyl)acetamide] was 6.00 to 7.00.
